pIC50: −log10 of the molar value. Like-named read-outs stand apart in the source and are kept apart here. Each block holds one compound with its values, some of them ahead of it.
Experiments:
CXCR4 (U87.CXCR4 cells) = molecular target: T1, CXCR4 (U87.CXCR4 cells) (Homo sapiens, UniProt P61073); experiment: Intracellular CXCL-12-induced calcium mobilization assay (FLIPR); format: cell-based; settings: CXCL-12 25-50 ng/mL, read-out: IC50 CXCL-12 Ca2+ flux U87.CXCR4+
T1 construct: expressed in transfected cells; host or cells: U87 (U87.CXCR4)
T1 sequence (P61073 whole entry): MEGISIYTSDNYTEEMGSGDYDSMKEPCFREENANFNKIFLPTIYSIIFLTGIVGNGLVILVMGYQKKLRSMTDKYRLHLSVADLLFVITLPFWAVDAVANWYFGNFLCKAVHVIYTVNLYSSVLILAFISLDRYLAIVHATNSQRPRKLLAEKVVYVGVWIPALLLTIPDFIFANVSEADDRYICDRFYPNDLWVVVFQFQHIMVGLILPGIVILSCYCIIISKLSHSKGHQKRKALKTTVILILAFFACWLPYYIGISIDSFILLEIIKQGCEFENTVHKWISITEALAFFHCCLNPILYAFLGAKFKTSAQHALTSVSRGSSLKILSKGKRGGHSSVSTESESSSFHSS
Method in brief: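 U87.CXCR4 cells were loaded with 4 μM Fluo-2 AM for 45 min at 37 °C in HBSS/20 mM HEPES/0.2% BSA, pH 7.4. Calcium flux induced by CXCL-12 (25-50 ng/mL) was monitored kinetically by FLIPR fluorescence at 37 °C.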

[1] = molecular target: T2, CXCR4 (Jurkat cells expressing CXCR4) (Homo sapiens, UniProt P61073); experiment: Chemokine (CXCL12-AF647) binding inhibition assay; settings: CXCL12-AF647 25 ng/mL, read-out: IC50 CXCL-12 binding Jurkat
T2 construct: Jurkat cells expressing CXCR4; endogenous in cells; host or cells: Jurkat
T2 sequence (P61073 whole entry): as above
Method in brief: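 Cells in HBSS, 20 mM HEPES, 0.2% BSA, pH 7.4, preincubated 15 min at room temperature with compound, then 25 ng/mL CXCL12-AF647 for 30 min. After washing and paraformaldehyde fixation, bound ligand read by flow cytometry; percent inhibition calculated from MFI relative to unlabeled and ligand-only controls.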

in vitro = settings: human, Caco-2, pH 7.4
Method in brief: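 Compound at 10 μM in HBSS pH 7.4 dosed A-to-B and B-to-A across Caco-2 monolayers, 90 min at 37 °C, duplicates. Monolayer integrity by TEER and lucifer yellow (5 μM, fluorescence 485/535 nm); compound quantified by LC-MS/MS.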

[2] = Mouse brain uptake assay (pharmacokinetics and brain penetration after IV administration); format: in vivo, Male CD1 Mice; settings: male, 3 mg/kg IV, 3 time points; for Kp: CD1, brain and plasma, read-out: Kp (brain/plasma drug concentration ratio, AUC last(b)/AUC last(p)); for Kp / clearance / half-life: mouse, 0-1 h; for clearance / half-life: CD1, plasma; for clearance: read-out: Cl (Clearance) (converted); for half-life: read-out: t½ (half life) (converted); for AUC(0-t): CD1, time zero to 1 hr
Procedure: Example 15: Pharmacokinetics and Brain Penetration Experiment to Determine Brain and Plasma Concentrations of Compounds after IV Administration to Male CD1 Mice or Male SD Rats
The study design (9 animals) consisted of administrating the drug (IV: 3 mg/kg (5 mL/kg) via tail vein injection) and collecting samples at terminal bleeding for plasma and brain at 0.083, 0.5 and 1 h. The blood collection was performed as follows: the animal was restrained manually and approximately 150 μL blood/time point was collected into a dipotassium EDTA tube via retro orbital puncture under anesthesia with isoflurane. The blood sample was put on ice and centrifuged to obtain a plasma sample (2000 g, 5 min under 4° C.) within 15 minutes. The brain collection was performed as follows: a mid-line incision was made in the animal's scalp and the skin was retracted. Using small bone cutters and rongeurs, the skull overlying the brain was removed. The brain was removed using a spatula and the brain rinsed with cold saline. The brain was placed in screw-top tubes, and the tubes were stored at −70° C. until analysis. The IV dosing solution was prepared in 50 mM citrate buffer (pH 4.0) at 0.6 mg/mL.
Plasma Sample Preparation:
An aliquot of 30 μL sample was added to […] containing 50 ng/mL IS (Dexamethasone). The mixture was vortexed for 5 min and centrifuged at 14,000 rpm for 5 min. An aliquot of 5 μL supernatant was injected for LC-MS/MS analysis.
Brain Sample Preparation:
An aliquot of 30 μL brain homogenate (brain:PBS=1:3, w/v) sample was added to 150 μL IS in MeCN (Dexamethasone, 50 ng/mL). The mixture was vortexed for 5 min and centrifuged at 14,000 rpm for 5 min. An aliquot of 5 μL supernatant was injected for LC-MS/MS analysis.
The sample analysis was performed on LCMS/MS-003 (API4000, triple quadruple) under the following conditions: positive ion, ESI, MRM detection using dexamethasone as internal standard. HPLC conditions: mobile phase A: H2O (0.025% formic acid (FA) with 1 mM NH4OAc); mobile phase B: MeOH (0.025% FA with 1 mM NH4OAc) on Waters X-Bridge C18 (2.1×50 mm, 2.5 μm) column at 60° C.
A similar experiment was performed with 4 time points taken from 0-24 h.

[3] = mouse brain, read-out: AUClast (b) (area under the brain drug concentration-time curve)
[4] = mouse plasma, read-out: AUClast (p) (area under the plasma drug concentration-time curve)

Compound: Cc1cccnc1C1CCCN1Cc1nc2ccccc2n1C1CCN(C)CC1 (stereo not shown) [Compound I-33]
pIC50 (CXCR4 (U87.CXCR4 cells)): 6.00 to 7.00
pIC50 [1]: 7.00 to 11.00
Papp A→B at 90 min, 10 μM (in vitro): 10 to 30 ×10⁻⁶ cm/s
Papp B→A at 90 min, 10 μM (in vitro): 10 to 30 ×10⁻⁶ cm/s
efflux ratio at 90 min, 10 μM (in vitro): 0.1 to 10
Kp [2]: 6.6
clearance [2]: 27.5 mL/min/kg
half-life [2]: 4.93 h
AUC(0-t) [2, 3]: 1660 ng·h/mL
AUC(0-t) [2, 4]: 252 ng·h/mL

Compound: CN1CCN(c2cccc3nc(C4CCCN4Cc4ncccn4)[nH]c23)CC1 (stereo not shown) [Compound I-105]
pIC50 (CXCR4 (U87.CXCR4 cells)): ≤ 6.00
pIC50 [1]: ≤ 6.00
Papp A→B at 90 min, 10 μM (in vitro): 0.1 to 10 ×10⁻⁶ cm/s
Papp B→A at 90 min, 10 μM (in vitro): > 30 ×10⁻⁶ cm/s
efflux ratio at 90 min, 10 μM (in vitro): 0.1 to 10

Compound: Cc1cccnc1C1CCCN1Cc1nccn1CC1CCN(CC(F)(F)F)CC1 (stereo not shown) [Compound I-106]
pIC50 (CXCR4 (U87.CXCR4 cells)): ≤ 6.00
pIC50 [1]: 6.00 to 7.00
Papp A→B at 90 min, 10 μM (in vitro): 10 to 30 ×10⁻⁶ cm/s
Papp B→A at 90 min, 10 μM (in vitro): > 30 ×10⁻⁶ cm/s
efflux ratio at 90 min, 10 μM (in vitro): 0.1 to 10

Compound: Cc1cccnc1C1CCCN1Cc1nccn1CC1CCN(c2ccccn2)CC1 (stereo not shown) [Compound I-109]
pIC50 (CXCR4 (U87.CXCR4 cells)): ≤ 6.00
pIC50 [1]: 6.00 to 7.00
Papp A→B at 90 min, 10 μM (in vitro): > 30 ×10⁻⁶ cm/s
Papp B→A at 90 min, 10 μM (in vitro): > 30 ×10⁻⁶ cm/s
efflux ratio at 90 min, 10 μM (in vitro): 0.1 to 10

Compound: Cc1cccnc1C1CCCN1Cc1nccn1CC1CCOCC1 (stereo not shown) [Compound I-110]
pIC50 (CXCR4 (U87.CXCR4 cells)): ≤ 6.00
pIC50 [1]: 6.00 to 7.00
Papp A→B at 90 min, 10 μM (in vitro): 10 to 30 ×10⁻⁶ cm/s
Papp B→A at 90 min, 10 μM (in vitro): > 30 ×10⁻⁶ cm/s
efflux ratio at 90 min, 10 μM (in vitro): 0.1 to 10

Compound: Cc1cccnc1C1CCCN1Cc1nccn1CCCCN1CCOCC1 (stereo not shown) [Compound I-111]
pIC50 (CXCR4 (U87.CXCR4 cells)): ≤ 6.00
pIC50 [1]: 7.00 to 11.00
Papp A→B at 90 min, 10 μM (in vitro): 0.1 to 10 ×10⁻⁶ cm/s
Papp B→A at 90 min, 10 μM (in vitro): 10 to 30 ×10⁻⁶ cm/s
efflux ratio at 90 min, 10 μM (in vitro): 0.1 to 10

Compound: CN1CCC(Cn2ccnc2CN2CCCC2c2ccccn2)CC1 (stereo not shown) [Compound I-112]
pIC50 (CXCR4 (U87.CXCR4 cells)): 6.00 to 7.00
pIC50 [1]: 7.00 to 11.00
Papp A→B at 90 min, 10 μM (in vitro): 0.1 to 10 ×10⁻⁶ cm/s
Papp B→A at 90 min, 10 μM (in vitro): 10 to 30 ×10⁻⁶ cm/s
efflux ratio at 90 min, 10 μM (in vitro): > 30

Compound: Cc1cccnc1C1CCCN1Cc1ncccc1CN1CCOCC1 (stereo not shown) [Compound I-118]
pIC50 (CXCR4 (U87.CXCR4 cells)): ≤ 6.00
pIC50 [1]: 6.00 to 7.00
Papp A→B at 90 min, 10 μM (in vitro): 0.1 to 10 ×10⁻⁶ cm/s
Papp B→A at 90 min, 10 μM (in vitro): > 30 ×10⁻⁶ cm/s
efflux ratio at 90 min, 10 μM (in vitro): 0.1 to 10

Compound: Cc1cccnc1C1CCCN1Cc1nc2ccccn2c1CN1CCOCC1 (stereo not shown) [Compound I-119]
pIC50 (CXCR4 (U87.CXCR4 cells)): 6.00 to 7.00
pIC50 [1]: 7.00 to 11.00
Papp A→B at 90 min, 10 μM (in vitro): 0.1 to 10 ×10⁻⁶ cm/s
Papp B→A at 90 min, 10 μM (in vitro): > 30 ×10⁻⁶ cm/s
efflux ratio at 90 min, 10 μM (in vitro): 10 to 30

Compound: CN1CCN(C(=O)c2c(CN3CCCC3c3ccccn3)nc3ccccn23)CC1 (stereo not shown) [Compound I-123]
pIC50 (CXCR4 (U87.CXCR4 cells)): ≤ 6.00
pIC50 [1]: 6.00 to 7.00
Papp A→B at 90 min, 10 μM (in vitro): 0.1 to 10 ×10⁻⁶ cm/s
Papp B→A at 90 min, 10 μM (in vitro): 10 to 30 ×10⁻⁶ cm/s
efflux ratio at 90 min, 10 μM (in vitro): 0.1 to 10

Now from value to compound:

pIC50 (CXCR4 (U87.CXCR4 cells)): 7.00 to 11.00
pIC50 [1]: 7.00 to 11.00
Papp A→B at 90 min, 10 μM (in vitro): 10 to 30 ×10⁻⁶ cm/s
Papp B→A at 90 min, 10 μM (in vitro): 10 to 30 ×10⁻⁶ cm/s
efflux ratio at 90 min, 10 μM (in vitro): 0.1 to 10
Kp [2]: 5.51
clearance [2]: 41.8 mL/min/kg
half-life [2]: 3.99 h
AUC(0-t) [2, 3]: 833 ng·h/mL
AUC(0-t) [2, 4]: 151 ng·h/mL
Compound: Cc1cccnc1CN1CCCC1c1nc2cccc(N3CCN(C)CC3)c2[nH]1 (stereo not shown) [Compound I-45]

pIC50 (CXCR4 (U87.CXCR4 cells)): 7.00 to 11.00
pIC50 [1]: 7.00 to 11.00
Papp A→B at 90 min, 10 μM (in vitro): 10 to 30 ×10⁻⁶ cm/s
Papp B→A at 90 min, 10 μM (in vitro): 10 to 30 ×10⁻⁶ cm/s
efflux ratio at 90 min, 10 μM (in vitro): 0.1 to 10
Kp [2]: 3.13
clearance [2]: 38.7 mL/min/kg
half-life [2]: 3.43 h
AUC(0-t) [2, 3]: 1230 ng·h/mL
AUC(0-t) [2, 4]: 393 ng·h/mL
Compound: CN1CCN(c2c(CN3CCCC3c3ccccn3)nc3ccccn23)CC12CC2 (stereo not shown) [Compound I-58]

pIC50 (CXCR4 (U87.CXCR4 cells)): 7.00 to 11.00
pIC50 [1]: 7.00 to 11.00
Papp A→B at 90 min, 10 μM (in vitro): 0.1 to 10 ×10⁻⁶ cm/s
Papp B→A at 90 min, 10 μM (in vitro): 10 to 30 ×10⁻⁶ cm/s
efflux ratio at 90 min, 10 μM (in vitro): 0.1 to 10
Kp [2]: 1.05
clearance [2]: 58.3 mL/min/kg
half-life [2]: 3.71 h
AUC(0-t) [2, 3]: 240 ng·h/mL
AUC(0-t) [2, 4]: 227 ng·h/mL
Compound: CN1CCN(c2c(CN3CCCC3c3ncccc3Cl)nc3ccccn23)CC1 (stereo not shown) [Compound I-59]

pIC50 (CXCR4 (U87.CXCR4 cells)): 7.00 to 11.00
pIC50 [1]: 7.00 to 11.00
Papp A→B at 90 min, 10 μM (in vitro): 0.1 to 10 ×10⁻⁶ cm/s
Papp B→A at 90 min, 10 μM (in vitro): 10 to 30 ×10⁻⁶ cm/s
efflux ratio at 90 min, 10 μM (in vitro): 0.1 to 10
Compound: Cc1cccnc1C1CCCN1Cc1nccn1CC1CCN(C2CC2)CC1 (stereo not shown) [Compound I-107]

pIC50 (CXCR4 (U87.CXCR4 cells)): 7.00 to 11.00
pIC50 [1]: 7.00 to 11.00
Papp A→B at 90 min, 10 μM (in vitro): 0.1 to 10 ×10⁻⁶ cm/s
Papp B→A at 90 min, 10 μM (in vitro): > 30 ×10⁻⁶ cm/s
efflux ratio at 90 min, 10 μM (in vitro): > 30
Compound: Cc1cccnc1C1CCCN1Cc1ncccc1CC1CCN(C)CC1 (stereo not shown) [Compound I-117]

pIC50 (CXCR4 (U87.CXCR4 cells)): 7.00 to 11.00
pIC50 [1]: 7.00 to 11.00
Papp A→B at 90 min, 10 μM (in vitro): 0.1 to 10 ×10⁻⁶ cm/s
Papp B→A at 90 min, 10 μM (in vitro): > 30 ×10⁻⁶ cm/s
efflux ratio at 90 min, 10 μM (in vitro): 0.1 to 10
Compound: Cc1cccnc1C1CCCN1Cc1nc2ccccc2n1CC1CCN(C)CC1 (stereo not shown) [Compound I-122]
